# Patent publication US12371454B2, “Cyclic peptide compound having Kras inhibitory action” (priority 2019, dated 2025)
# Starred links: 1 amine or outer side, 2 acyl side, 3 side chain; linkers in the order of their positions; H or OH if unused. Positions of bridges follow the written chain, without caps; N, C: chain ends. Non-standard residues stand in square brackets, D forms with d. Residues, ends and D or L forms follow the SMILES beside them. *: point of attachment. hPhe(3,5-F2-4-CF3) = N[C@@H](CCc1cc(F)c(C(F)(F)F)c(F)c1)C(=O)O; hPhe(3-Cl-4-CF3) = N[C@@H](CCc1ccc(C(F)(F)F)c(Cl)c1)C(=O)O; hPhe(3-F,4-CF3) = N[C@@H](CCc1ccc(C(F)(F)F)c(F)c1)C(=O)O; NMePhe(4-CF3) = CN[C@@H](Cc1ccc(C(F)(F)F)cc1)C(=O)O; Pro(cis-4-Ph) = O=C(O)[C@@H]1C[C@H](c2ccccc2)CN1; NMePhe(4-I) = CN[C@@H](Cc1ccc(I)cc1)C(=O)O; hPhe(4-Cl) = N[C@@H](CCc1ccc(Cl)cc1)C(=O)O; NMedβ3hAla = C[C@H](CC(=O)[*:2])N(C)[*:1]; NMeAla(cPent) = CN[C@@H](CC1CCCC1)C(=O)O; NMeGly(cPent) = CN[C@H](C(=O)O)C1CCCC1; Pro(4,4-F2) = O=C(O)[C@@H]1CC(F)(F)CN1; NMeGly(cBu) = CN[C@H](C(=O)O)C1CCC1; NMeCha = CN[C@@H](CC1CCCCC1)C(=O)O; NMeChg = CN[C@H](C(=O)O)C1CCCCC1; NMeI = CC[C@H](C)[C@H](NC)C(=O)O; NMeT = CN[C@H](C(=O)O)[C@@H](C)O; NMeD = CN[C@@H](CC(=O)O)C(=O)O; NMeHpra = C#CCC[C@H](NC)C(=O)O; NMeL = CN[C@@H](CC(C)C)C(=O)O; NMeV = CN[C@H](C(=O)O)C(C)C; Azetidin(1-yl) = C1CN(*)C1; NMeA = CN[C@@H](C)C(=O)O; Piperidide = C1CCN(*)CC1; Pyrrolidide = C1CCN(*)C1; Ac5c = NC1(C(=O)O)CCCC1; Aze = O=C(O)[C@@H]1CCN1; Sar = CNCC(=O)O
# System: Human pancreatic cancer cell line AsPC-1
# Assay: Measurement of AsPC-1 cell growth inhibition (AsPC-1 CGI)
# Format: cell-based
# Details: 96 h
# In short: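 AsPC-1 cells in 15% FBS RPMI-1640 were exposed to test compound for 96 hours at 37° C, with CellTiter-Glo as endpoint.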
row,Structure (SMILES),IC50 [nM]
1,CC[C@H](C)[C@@H]1NC(=O)[C@H](CC(C)C)N(C)C(=O)C[C@@H](C(=O)N2CCCCC2)N(C)C(=O)[C@H](C(C)C)N(C)C(=O)C2(CCCC2)NC(=O)[C@@H]2CCCN2C(=O)[C@H](CCc2ccc(Cl)cc2)NC(=O)CN(C)C(=O)[C@H](CC2CCCCC2)N(C)C(=O)[C@@H]2CCN2C(=O)CN(C)C1=O [Compound 916] ([NMeL]I[Sar][Aze][NMeCha][Sar][hPhe(4-Cl)]P[Ac5c][NMeV][NMeD]-Piperidide; lactam N-11),100 to 500
2,CC[C@H](C)[C@@H]1NC(=O)[C@H](CC(C)C)N(C)C(=O)C[C@@H](C(=O)N2CCCCC2)N(C)C(=O)[C@H](C(C)C)N(C)C(=O)C2(CCCC2)NC(=O)[C@@H]2CCCN2C(=O)[C@H](CCc2ccc(C(F)(F)F)c(Cl)c2)NC(=O)CN(C)C(=O)[C@H]([C@@H](C)OC)N(C)C(=O)[C@@H]2CCN2C(=O)[C@H](C)N(C)C1=O [Compound 929] ([NMeL]I[NMeA][Aze][NMeT](Me)[Sar][hPhe(3-Cl-4-CF3)]P[Ac5c][NMeV][NMeD]-Piperidide; lactam N-11),100 to 500
3,CC[C@H](C)[C@@H]1NC(=O)[C@H](C2CCC2)N(C)C(=O)C[C@@H](C(=O)N2CCCCC2)N(C)C(=O)[C@H]([C@@H](C)CC)N(C)C(=O)C2(CCCC2)NC(=O)[C@@H]2CCCN2C(=O)[C@H](CCc2ccc(C(F)(F)F)c(Cl)c2)NC(=O)CN(C)C(=O)[C@H](CC2CCCCC2)N(C)C(=O)[C@@H]2CCN2C(=O)[C@H](C)N(C)C1=O [Compound 959] ([NMeGly(cBu)]I[NMeA][Aze][NMeCha][Sar][hPhe(3-Cl-4-CF3)]P[Ac5c][NMeI][NMeD]-Piperidide; lactam N-11),20 to 50
4,CC[C@H](C)[C@@H]1NC(=O)[C@H](CC(C)C)N(C)C(=O)C[C@@H](C(=O)N2CCCCC2)N(C)C(=O)[C@H](C2CCCCC2)N(C)C(=O)C2(CCCC2)NC(=O)[C@@H]2C[C@H](c3ccccc3)CN2C(=O)[C@H](CCc2ccc(C(F)(F)F)c(Cl)c2)NC(=O)CN(C)C(=O)[C@H](CC2CCCCC2)N(C)C(=O)[C@@H]2CCN2C(=O)CN(C)C1=O [Compound 960] ([NMeL]I[Sar][Aze][NMeCha][Sar][hPhe(3-Cl-4-CF3)][Pro(cis-4-Ph)][Ac5c][NMeChg][NMeD]-Piperidide; lactam N-11),100 to 500

# Second part, the compound after the results:
row,IC50 [nM],Structure (SMILES)
1,20 to 50,"CC[C@H](C)[C@@H]1NC(=O)[C@H](CC(C)C)N(C)C(=O)C[C@@H](C)N(C)C(=O)[C@H](C2CCCC2)N(C)C(=O)C2(CCCC2)NC(=O)[C@@H]2CC(F)(F)CN2C(=O)[C@H](CCc2cc(F)c(C(F)(F)F)c(F)c2)NC(=O)CN(C)C(=O)[C@H](Cc2ccc(C(F)(F)F)cc2)N(C)C(=O)[C@@H]2CCN2C(=O)[C@H](C)N(C)C1=O [Compound 900] (cyclo([Ac5c][NMeGly(cPent)][NMedβ3hAla][NMeL]I[NMeA][Aze][NMePhe(4-CF3)][Sar][hPhe(3,5-F2-4-CF3)][Pro(4,4-F2)]))"
2,50 to 100,"CC[C@H](C)[C@@H]1NC(=O)[C@H](CC(C)C)N(C)C(=O)C[C@@H](C)N(C)C(=O)[C@H]([C@@H](C)CC)N(C)C(=O)C2(CCCC2)NC(=O)[C@@H]2CCCN2C(=O)[C@H](CCc2ccc(C(F)(F)F)c(F)c2)NC(=O)CN(C)C(=O)[C@H](C2CCCC2)N(C)C(=O)[C@@H]2CCN2C(=O)[C@H](C)N(C)C1=O [Compound 909] (cyclo([Ac5c][NMeI][NMedβ3hAla][NMeL]I[NMeA][Aze][NMeGly(cPent)][Sar][hPhe(3-F,4-CF3)]P))"
3,20 to 50,"CC[C@H](C)[C@@H]1NC(=O)[C@H](CC(C)C)N(C)C(=O)C[C@@H](C(=O)N2CCCC2)N(C)C(=O)[C@H](C2CCCC2)N(C)C(=O)C2(CCCC2)NC(=O)[C@@H]2CCCN2C(=O)[C@H](CCc2ccc(C(F)(F)F)c(F)c2)NC(=O)CN(C)C(=O)[C@H](C2CCCC2)N(C)C(=O)[C@@H]2CCN2C(=O)[C@H](C)N(C)C1=O [Compound 918] ([NMeL]I[NMeA][Aze][NMeGly(cPent)][Sar][hPhe(3-F,4-CF3)]P[Ac5c][NMeGly(cPent)][NMeD]-Pyrrolidide; lactam N-11)"
4,20 to 50,CC[C@H](C)[C@@H]1NC(=O)[C@H](CC2CCCC2)N(C)C(=O)C[C@@H](C(=O)N2CCC2)N(C)C(=O)[C@H](C2CCCC2)N(C)C(=O)C2(CCCC2)NC(=O)[C@@H]2CCCN2C(=O)[C@H](CCc2ccc(C(F)(F)F)c(Cl)c2)NC(=O)CN(C)C(=O)[C@H](CC2CCCCC2)N(C)C(=O)[C@@H]2CCN2C(=O)[C@H](C)NC1=O [Compound 921] ([NMeAla(cPent)]IA[Aze][NMeCha][Sar][hPhe(3-Cl-4-CF3)]P[Ac5c][NMeGly(cPent)][NMeD]-{Azetidin(1-yl)}; lactam N-11)
5,100 to 500,C#CCC[C@H]1C(=O)N[C@@H]([C@@H](C)CC)C(=O)N(C)[C@@H](C)C(=O)N2CC[C@H]2C(=O)N(C)[C@@H](Cc2ccc(I)cc2)C(=O)N(C)CC(=O)N[C@@H](CCc2ccc(C(F)(F)F)c(Cl)c2)C(=O)N2CCC[C@H]2C(=O)NC2(CCCC2)C(=O)N(C)[C@@H](C2CCCCC2)C(=O)N(C)[C@H](C)CC(=O)N1C [Compound 961] (cyclo([Ac5c][NMeChg][NMedβ3hAla][NMeHpra]I[NMeA][Aze][NMePhe(4-I)][Sar][hPhe(3-Cl-4-CF3)]P))
